Experimental data from patent publication US20250255301A1, “PESTICIDAL MIXTURES COMPRISING A PYRAZOLE COMPOUND” (BASF SE, priority 2019, published 2025).
Read-outs that look alike come from different tables or passages of the source.

Key:
Format in all cases: cell-based
Phytophthora infestans = conditions: single active, 7 days after inoculation
Botrytis cinerea = assay: Activity against the grey mold Botrytis cinerea in the microtiterplate test; conditions: single active, 7 days after inoculation
Description: Synergism can be described as an interaction where the combined effect of two or more compounds is greater than the sum of the individual effects of each of the compounds. The presence of a synergistic effect in terms of percent control or efficacy, between two mixing partners (X and Y) can be calculated using the Colby equation (Colby, S. R., 1967, Calculating Synergistic and Antagonistic Responses in Herbicide Combinations, Weeds, 15, 20-22): The measured parameters were compared to the growth of the active compound-free control variant (100%) and the fungus-free blank value to determine the relative growth in % of the pathogens in the respective active compounds. These percentages were converted into efficacies. […] The expected efficacies of active compound mixtures were determined using Colby's formula [R. S. Colby, “Calculating synergistic and antagonistic responses of herbicide combinations”, Weeds 15, 20-22 (1967)] and compared with the observed efficacies. […] The stock solutions were mixed according to the ratio, pipetted onto a micro titer plate (MTP) and diluted with water to the stated concentrations. A spore suspension of Botrci cinerea in an aqueous biomalt or yeast-bactopeptone-sodiumacetate solution was then added. The plates were placed in a water vapor-saturated chamber at a temperature of 18° C.

Septoria tritici = assay: Activity against leaf blotch on wheat caused by Septoria tritici (microtiter plate); conditions: single active, 7 days after inoculation
Description: Synergism can be described as an interaction where the combined effect of two or more compounds is greater than the sum of the individual effects of each of the compounds. The presence of a synergistic effect in terms of percent control or efficacy, between two mixing partners (X and Y) can be calculated using the Colby equation (Colby, S. R., 1967, Calculating Synergistic and Antagonistic Responses in Herbicide Combinations, Weeds, 15, 20-22): The measured parameters were compared to the growth of the active compound-free control variant (100%) and the fungus-free blank value to determine the relative growth in % of the pathogens in the respective active compounds. These percentages were converted into efficacies. […] The expected efficacies of active compound mixtures were determined using Colby's formula [R. S. Colby, “Calculating synergistic and antagonistic responses of herbicide combinations”, Weeds 15, 20-22 (1967)] and compared with the observed efficacies. […] The stock solutions were mixed according to the ratio, pipetted onto a micro titer plate (MTP) and diluted with water to the stated concentrations. A spore suspension of Septoria tritici in an aqueous biomalt or yeast-bactopeptone-glycerine or DOB solution was then added. The plates were placed in a water vapor-saturated chamber at a temperature of 18° C. Using an absorption photometer, the MTPs were measured at 405 nm 7 days after the inoculation.

Cercospora sojina = assay: Activity against Cercospora sojina in the microtiter test; conditions: single active, 7 days after inoculation
Description: Synergism can be described as an interaction where the combined effect of two or more compounds is greater than the sum of the individual effects of each of the compounds. The presence of a synergistic effect in terms of percent control or efficacy, between two mixing partners (X and Y) can be calculated using the Colby equation (Colby, S. R., 1967, Calculating Synergistic and Antagonistic Responses in Herbicide Combinations, Weeds, 15, 20-22): The measured parameters were compared to the growth of the active compound-free control variant (100%) and the fungus-free blank value to determine the relative growth in % of the pathogens in the respective active compounds. These percentages were converted into efficacies. […] The expected efficacies of active compound mixtures were determined using Colby's formula [R. S. Colby, “Calculating synergistic and antagonistic responses of herbicide combinations”, Weeds 15, 20-22 (1967)] and compared with the observed efficacies. […] The stock solutions were mixed according to the ratio, pipetted onto a micro titer plate (MTP) and diluted with water to the stated concentrations. A spore suspension of Cercospora sojina in an aqueous biomalt or yeast-bactopeptone-sodiumacetate solution was then added. The plates were placed in a water vapor-saturated chamber at a temperature of 18° C. Using an absorption photometer, the MTPs were measured at 405 nm 7 days after the inoculation.

[1] = tested on: Colletotrichum orbiculare; assay: Activity against Colletotrichum orbiculare in the microtiterplate test; conditions: single active, 7 days after inoculation
Rhynchosporium secalis = assay: Activity against Rhynchosporium secalis in the microtiterplate test; conditions: single active, 63 ppm, 7 days after inoculation
Description: Synergism can be described as an interaction where the combined effect of two or more compounds is greater than the sum of the individual effects of each of the compounds. The presence of a synergistic effect in terms of percent control or efficacy, between two mixing partners (X and Y) can be calculated using the Colby equation (Colby, S. R., 1967, Calculating Synergistic and Antagonistic Responses in Herbicide Combinations, Weeds, 15, 20-22): The measured parameters were compared to the growth of the active compound-free control variant (100%) and the fungus-free blank value to determine the relative growth in % of the pathogens in the respective active compounds. These percentages were converted into efficacies. […] The expected efficacies of active compound mixtures were determined using Colby's formula [R. S. Colby, “Calculating synergistic and antagonistic responses of herbicide combinations”, Weeds 15, 20-22 (1967)] and compared with the observed efficacies. […] The stock solutions were mixed according to the ratio, pipetted onto a micro titer plate (MTP) and diluted with water to the stated concentrations. A spore suspension of Rhynchosporium secalis in an aqueous biomalt or yeast-bactopeptone-glycerine or DOB solution was then added. […] Using an absorption photometer, the MTPs were measured at 405 nm 7 days after the inoculation.

Sclerotinia sclerotiorum = assay: Activity against Sclerotinia sclerotiorum in the microtiterplate test; conditions: single active, 7 days after inoculation

Compound: CCN(C(=O)c1cnn(C(C)C(C)C)c1C)c1ccnnc1 (racemic) [Dimpropyridaz, 1-[(1 RS)-1,2-dimethylpropyl]-N-ethyl-5-methyl-N-pyridazin-4-yl-1H-pyrazole-4-carboxamide]
- Observed efficacy (Phytophthora infestans; 0.016 ppm): 0%
- Observed efficacy (Phytophthora infestans; 0.063 ppm): 4%
- Observed efficacy (Botrytis cinerea; 0.063 ppm): 0%
- Observed efficacy (Botrytis cinerea; 0.25 ppm): 1%
- Observed efficacy (Botrytis cinerea; 1 ppm): 0%
- Observed efficacy (Septoria tritici; 0.063 ppm): 5%
- Observed efficacy (Septoria tritici; 0.25 ppm): 7%
- Observed efficacy (Cercospora sojina; 0.25 ppm): 0%
- Observed efficacy (Cercospora sojina; 63 ppm): 23%
- Observed efficacy ([1]; 63 ppm): 14%
- Observed efficacy (Rhynchosporium secalis): 12%
- Observed efficacy (Sclerotinia sclerotiorum; 0.25 ppm): 0%

Compound: N#Cc1ccc(Oc2ccc(C(F)(F)C(O)(Cn3ncnc3S)c3ccc(F)cc3F)nc2)cc1 (centres unmarked) [B.5)d), 4-[[6-[2-(2,4-difluorophenyl)-1,1-difluoro-2-hydroxy-3-(5-sulfanyl-1,2,4-triazol-1-yl)propyl]-3-pyridyl]oxy]benzonitrile]
- Observed efficacy (Rhynchosporium secalis): 70%

Compound: COc1ccnc(C(=O)N[C@@H](C)C(=O)O[C@@H](C)C(c2ccc(F)cc2)c2ccc(F)cc2)c1OC(C)=O [Florylpicoxamid, florylpicoxamid, reference compound]
- Observed efficacy (Cercospora sojina; 0.25 ppm): 6%
- Observed efficacy (Cercospora sojina; 16 ppm): 61%

Compound: CC(C)c1ccc(Cl)cc1CN(C(=O)c1c(C(F)F)nn(C)c1F)C1CC1 [Isoflucypram, isoflucypram, reference compound]
- Observed efficacy (Botrytis cinerea; 0.25 ppm): 57%
- Observed efficacy (Septoria tritici; 0.063 ppm): 40%

Compound: Cc1cc(C(F)(F)F)nn1CC(=O)N1CCC(c2nc(C3=NOC(c4c(F)cccc4F)C3)cs2)CC1 (centres unmarked) [Oxathiapiproline, oxathiapiprolin, reference compound]
- Observed efficacy (Phytophthora infestans; 0.016 ppm): 0%
- Observed efficacy (Phytophthora infestans; 0.063 ppm): 11%

Compound: CON(C(=O)c1cn(C)nc1C(F)F)C(C)Cc1c(Cl)cc(Cl)cc1Cl (centres unmarked) [Pydiflumetofen, pydiflumetofen, reference compound]
- Observed efficacy (Botrytis cinerea; 0.063 ppm): 42%
- Observed efficacy ([1]; 16 ppm): 59%

Compound: pyrapropoyne [reference compound]
- Observed efficacy (Botrytis cinerea; 1 ppm): 26%
- Observed efficacy (Sclerotinia sclerotiorum; 1 ppm): 27%
